From patent publication US10611740B2, “Aryl dihydro-2H-benzo[b][1,4]oxazine sulfonamide and related compounds for use as agonists of RORγ and the treatment of disease” (Lycera Corporation, priority 2015, dated 2020)

Columns and labels:
RORγ-LBD = biological target: T1, RORγ-LBD (Homo sapiens, UniProt P51449); experiment: RORγ-Ligand Binding Domain (LBD) TR-FRET Assay; type: biochemical;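 for TR-FRET Assay Max Response: 665/615 nm ratio relative to signal without ursolic acid or compound set at 100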
T1 construct: made in house; host or cells: SF9 cells (baculovirus)
T1 sequence (P51449 269-508 limits assumed): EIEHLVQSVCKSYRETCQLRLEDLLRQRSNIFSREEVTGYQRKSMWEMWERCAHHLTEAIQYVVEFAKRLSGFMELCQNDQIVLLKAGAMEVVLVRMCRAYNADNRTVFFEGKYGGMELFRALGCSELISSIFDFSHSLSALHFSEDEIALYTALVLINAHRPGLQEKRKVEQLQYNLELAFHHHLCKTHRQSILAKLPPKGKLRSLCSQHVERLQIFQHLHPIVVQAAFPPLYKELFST
Outline: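 SF9 lysate containing His-RORγ-LBD, ~3 nM final; coactivator peptide biotin-SRC1 LXXLL, 200 nM final; ursolic acid 2 μM final; DMSO 1% final; Tris pH 7.0 buffer with KCl, EDTA, DTT, BSA. TR-FRET format.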

Gal4-RORγ-LBD = biological target: T2, Gal4-RORγ-LBD (Homo sapiens, UniProt P51449); experiment: Gal4-RORγ Luciferase Reporter Assay in HEK-293T Cells; type: cell-based; details: HEK-293 cells
T2 construct: expressed in transfected cells; host or cells: HEK-293 cells (pcDNA3.1neo plasmid)
T2 sequence (P51449 269-508 limits assumed): T1 sequence (P51449 269-508 limits assumed)
Outline: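 In transfected HEK-293 cells (Gal4-RORγ-LBD, Gal4-luciferase), test agents with 2 μM ursolic acid were incubated overnight at 37 °C before luminescent detection. Values are relative to the ursolic-acid-free, compound-free signal (100).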

[1] = luciferase reporter, with 2 μM ursolic acid

SMILES	EC50 (RORγ-LBD)	EC50 (Gal4-RORγ-LBD; [1])	EC50 (Gal4-RORγ-LBD; 2 μM ursolic acid)	TR-FRET Assay Max Response (RORγ-LBD)	Gal4-RORγ Assay Max Response (Gal4-RORγ-LBD; [1])	Gal4-RORγ Assay Max Response (Gal4-RORγ-LBD; 2 μM ursolic acid)
CC(C)(F)C(=O)NC[C@H]1CN(S(=O)(=O)c2cccc(C(F)(F)F)c2)c2cc(-c3cc(F)ccc3F)ccc2O1 [Compound 30BE, (S)-N-((6-(2,5-difluorophenyl)-4-((3-(trifluoromethyl)phenyl)-sulfonyl)-3,4-dihydro-2H-benzo[b][1,4]oxazin-2-yl)methyl)-2-fluoro-2-methylpropanamide]	< 500 nM	< 500 nM		*** (The symbol “***” indicates a value in the range of greater than 150 to 200)	* (The symbol “*” indicates a value in the range of 25 to 90)	
COc1cc(F)cc(-c2ccc3c(c2)N(S(=O)(=O)c2cccc(C(F)(F)F)c2)C[C@H](CNC(=O)[C@@](C)(O)C(F)(F)F)O3)c1F [Compound 30BF, (R)-N-(((S)-6-(2,5-difluoro-3-methoxyphenyl)-4-((3-(trifluoro-methyl)phenyl)sulfonyl)-3,4-dihydro-2H-benzo[b][1,4]-oxazin-2-yl)methyl)-3,3,3-trifluoro-2-hydroxy-2-methylpropanamide]	< 500 nM	< 500 nM		**** (The symbol “****” indicates a value greater than 200)	* (The symbol “*” indicates a value in the range of 25 to 90)	
NS(=O)(=O)CCC(=O)NC[C@H]1CN(S(=O)(=O)c2cccc(C(F)(F)F)c2)c2cc(-c3cccc(C(F)(F)F)n3)ccc2O1 [Compound 30BG, (S)-3-sulfamoyl-N-((4-((3-(trifluoromethyl)phenyl)-sulfonyl)-6-(6-(trifluoro-methyl)pyridin-2-yl)-3,4-dihydro-2H-benzo[b][1,4]-oxazin-2-yl)methyl)-propanamide]	< 500 nM	500 to 5000 nM		*** (The symbol “***” indicates a value in the range of greater than 150 to 200)	** (The symbol “**” indicates a value in the range of greater than 90 to 150)	
N#CCC(=O)NC[C@H]1CN(S(=O)(=O)c2cccc(C(F)(F)F)c2)c2cc(-c3cccc(C(F)(F)F)n3)ccc2O1 [Compound 30BH, (S)-2-cyano-N-((4-((3-(trifluoromethyl)phenyl)-sulfonyl)-6-(6-(trifluoro-methyl)pyridin-2-yl)-3,4-dihydro-2H-benzo[b][1,4]-oxazin-2-yl)methyl)acetamide]	< 500 nM	500 to 5000 nM		*** (The symbol “***” indicates a value in the range of greater than 150 to 200)	** (The symbol “**” indicates a value in the range of greater than 90 to 150)	
CC(C)(CO)C(=O)NC[C@H]1CN(S(=O)(=O)c2cccc(C(F)(F)F)c2)c2cc(-c3cccc(C(F)(F)F)n3)ccc2O1 [Compound 30BI, (S)-3-hydroxy-2,2-dimethyl-N-((4-((3-(trifluoromethyl)-phenyl)sulfonyl)-6-(6-(trifluoromethyl)pyridin-2-yl)-3,4-dihydro-2H-benzo[b][1,4]-oxazin-2-yl)methyl)-propanamide]	< 500 nM	500 to 5000 nM		*** (The symbol “***” indicates a value in the range of greater than 150 to 200)	* (The symbol “*” indicates a value in the range of 25 to 90)	
Cn1cc(C(=O)NC[C@H]2CN(S(=O)(=O)c3cccc(C(F)(F)F)c3)c3cc(-c4cccc(C(F)(F)F)n4)ccc3O2)c(C(F)(F)F)n1 [Compound 30BN, (S)-1-methyl-3-(trifluoro-methyl)-N-((4-((3-(trifluoro-methyl)phenyl)sulfonyl)-6-(6-(trifluoromethyl)pyridin-2-yl)-3,4-dihydro-2H-benzo[b][1,4]-oxazin-2-yl)methyl)-1H-pyrazole-4-carboxamide]	500 to 5000 nM		> 10000 nM	*** (The symbol “***” indicates a value in the range of greater than 150 to 200)		* (The symbol “*” indicates a value in the range of 25 to 90)
CC(C)(C(=O)NC[C@H]1CN(S(=O)(=O)c2cccc(C(F)(F)F)c2)c2cc(-c3cccc(C(F)(F)F)n3)ccc2O1)C(F)(F)F [Compound 30BY, (S)-3,3,3-trifluoro-2,2-dimethyl-N-((4-((3-(trifluoromethyl)-phenyl)sulfonyl)-6-(6-(trifluoro-methyl)pyridin-2-yl)-3,4-dihydro-2H-benzo[b][1,4]-oxazin-2-yl)methyl)propanamide]	500 to 5000 nM		500 to 5000 nM	*** (The symbol “***” indicates a value in the range of greater than 150 to 200)		* (The symbol “*” indicates a value in the range of 25 to 90)
CC(C)(F)C(=O)NC[C@H]1CN(S(=O)(=O)c2cccc(C(F)(F)F)c2)c2cc(-c3cccc(F)c3Cl)ccc2O1 [Compound 30BZ, (S)-N-((6-(2-chloro-3-fluoro-phenyl)-4-((3-(trifluoromethyl)-phenyl)sulfonyl)-3,4-dihydro-2H-benzo[b][1,4]oxazin-2-yl)methyl)-2-fluoro-2-methylpropanamide]	< 500 nM		< 500 nM	**** (The symbol “****” indicates a value greater than 200)		* (The symbol “*” indicates a value in the range of 25 to 90)
CC(C)(O)C(=O)NCC[C@H]1CN(S(=O)(=O)c2cccc(C(F)(F)F)c2)c2cc(-c3cncc(C(F)(F)F)c3)ccc2O1 [Compound 30C, (S)-2-hydroxy-2-methyl-N-(2-(4-((3-(trifluoromethyl)-phenyl)sulfonyl)-6-(5-(trifluoromethyl)pyridin-3-yl)-3,4-dihydro-2H-benzo[b][1,4]oxazin-2-yl)ethyl)propanamide]	< 500 nM	< 500 nM		**** (The symbol “****” indicates a value greater than 200)	* (The symbol “*” indicates a value in the range of 25 to 90)	

Second part, led by results:

EC50 (RORγ-LBD)	EC50 (Gal4-RORγ-LBD; [1])	EC50 (Gal4-RORγ-LBD; 2 μM ursolic acid)	SMILES	TR-FRET Assay Max Response (RORγ-LBD)	Gal4-RORγ Assay Max Response (Gal4-RORγ-LBD; [1])	Gal4-RORγ Assay Max Response (Gal4-RORγ-LBD; 2 μM ursolic acid)
< 500 nM	< 500 nM		CC(C)(O)C(=O)NCC[C@H]1CN(S(=O)(=O)c2cccc(C(F)(F)F)c2)c2cc(-c3cccc(C(F)(F)F)n3)ccc2O1 [Compound 30B, (S)-2-hydroxy-2-methyl-N-(2-(4-((3-(trifluoromethyl)phenyl)-sulfonyl)-6-(6-(trifluoromethyl)-pyridin-2-yl)-3,4-dihydro-2H-benzo[b][1,4]oxazin-2-yl)ethyl)propanamide]	**** (The symbol “****” indicates a value greater than 200)	** (The symbol “**” indicates a value in the range of greater than 90 to 150)	
< 500 nM	< 500 nM		O=C(CO)NC[C@H]1CN(S(=O)(=O)c2cccc(C(F)(F)F)c2)c2cc(-c3cc(F)ccc3F)ccc2O1 [Compound 30BA, (S)-N-((6-(2,5-difluorophenyl)-4-((3-(trifluoromethyl)phenyl)-sulfonyl)-3,4-dihydro-2H-benzo[b][1,4]oxazin-2-yl)methyl)-2-hydroxyacetamide]	*** (The symbol “***” indicates a value in the range of greater than 150 to 200)	** (The symbol “**” indicates a value in the range of greater than 90 to 150)	
< 500 nM	< 500 nM		O=C(NC[C@H]1CN(S(=O)(=O)c2cccc(C(F)(F)F)c2)c2cc(-c3cc(F)ccc3F)ccc2O1)C1CCC1 [Compound 30BB, (S)-N-((6-(2,5-difluorophenyl)-4-((3-(trifluoromethyl)phenyl)-sulfonyl)-3,4-dihydro-2H-benzo-[b][1,4]oxazin-2-yl)methyl)-cyclobutanecarboxamide]	*** (The symbol “***” indicates a value in the range of greater than 150 to 200)	* (The symbol “*” indicates a value in the range of 25 to 90)	
< 500 nM	< 500 nM		CN(C)c1cccc(-c2ccc3c(c2)N(S(=O)(=O)c2cccc(C(F)(F)F)c2)C[C@H](CNC(=O)C2CC2)O3)n1 [Compound 30BC, (S)-N-((6-(6-(dimethylamino)-pyridin-2-yl)-4-((3-(trifluoro-methyl)phenyl)sulfonyl)-3,4-dihydro-2H-benzo[b][1,4]-oxazin-2-yl)methyl)cyclo-propanecarboxamide]	*** (The symbol “***” indicates a value in the range of greater than 150 to 200)	** (The symbol “**” indicates a value in the range of greater than 90 to 150)	
< 500 nM	< 500 nM		CC(=O)NC[C@H]1CN(S(=O)(=O)c2cccc(C(F)(F)F)c2)c2cc(-c3cc(F)ccc3F)ccc2O1 [Compound 30BD, (S)-N-((6-(2,5-difluorophenyl)-4-((3-(trifluoromethyl)phenyl)-sulfonyl)-3,4-dihydro-2H-benzo[b][1,4]oxazin-2-yl)methyl)acetamide]	**** (The symbol “****” indicates a value greater than 200)	** (The symbol “**” indicates a value in the range of greater than 90 to 150)	
